Seven compounds from patent publication US5565440A, “Methane diphosphonic acid derivative, its production process and its pharmaceutical applications” (Toray Industries, Inc., priority 1992, dated 1996) can be followed below.

The subject of the test is adjuvant arthritis. Kind of test: Adjuvant Arthritis Test. Format: in vivo, Lewis female rats. The settings on record: 8th to 21st day; for Swelling inhibition rate with respect to control group, 14th day, Left / Swelling inhibition rate with respect to control group, 21st day, Left: left hind limb (adjuvant-injected); for Swelling inhibition rate with respect to control group, 14th day, Right / Swelling inhibition rate with respect to control group, 21st day, Right: right hind limb; for Bone destruction inhibition rate with respect to control group: soft X-ray score, 22nd day.

With `COc1cccc2c1SCCC2CC(O)(P(=O)(O)O)P(=O)(O)O` (centres unmarked) [Example 12], under “3 mg/kg s.c. daily”, the “Swelling inhibition rate with respect to control group, 14th day, Left” value (“Swelling inhibition rate … 14th day, Left” for short) was 35.4%; the “Swelling inhibition rate with respect to control group, 21st day, Left” value (“Swelling inhibition rate … 21st day, Left” below) was found to be 60.1%; the “Swelling inhibition rate with respect to control group, 14th day, Right” value (shortened to “Swelling inhibition rate … 14th day, Right”) stood at 0.2%; the “Swelling inhibition rate with respect to control group, 21st day, Right” value (from here on “Swelling inhibition rate … 21st day, Right”) is on record as 24.2%. The “Bone destruction inhibition rate with respect to control group” value (“Bone destruction inhibition rate” for short) (3 mg/kg s.c. daily) was 26.2%.
Regarding `CC1(C)CC(CC(O)(P(=O)(O)O)P(=O)(O)O)c2ccccc2S1` (centres unmarked) [Example 2, Monosodium 2-[4-(2,2-dimethylthiochromanyl)]-1-hydroxyethane-1,1-diphosphonate], under “20 mg/kg s.c. daily”, the “Swelling inhibition rate … 14th day, Left” value is reported as 59.6%; the “Swelling inhibition rate … 21st day, Left” value is 75.3%; the “Swelling inhibition rate … 14th day, Right” value is on record as 8.0%; the “Swelling inhibition rate … 21st day, Right” value was found to be 16.5%. Also, the “Bone destruction inhibition rate” value (20 mg/kg s.c. daily) is listed as 80.4%.
For the compound `O=P(O)(O)C(O)(CC1CCSc2ccccc21)P(=O)(O)O` (centres unmarked) [Example 6, Monosodium 2-(4-thiochromanyl)-1-hydroxyethane-1,1-diphosphonate], for the setting “3 mg/kg s.c. daily”, the “Swelling inhibition rate … 14th day, Left” value is 26.1%; the “Swelling inhibition rate … 21st day, Left” value is listed as 62.0%; the “Swelling inhibition rate … 14th day, Right” value stood at 27.2%; the “Swelling inhibition rate … 21st day, Right” value amounted to 35.9%. Moreover, the “Bone destruction inhibition rate” value (3 mg/kg s.c. daily) turned out to be 38.5%.
For `CSc1cccc2c1SCCC2CC(O)(P(=O)(O)O)P(=O)(O)O` (centres unmarked) [Example 14, Disodium 2-[4-(8-methylthiothiochromanyl)]-1-hydroxyethane-1,1-diphosphonate], where the note is “3 mg/kg s.c. daily”, the “Swelling inhibition rate … 14th day, Left” value is 53.9%; the “Swelling inhibition rate … 21st day, Left” value turned out to be 80.0%; the “Swelling inhibition rate … 14th day, Right” value is given as 2.9%; the “Swelling inhibition rate … 21st day, Right” value is recorded as 31.0%. In addition, the “Bone destruction inhibition rate” value (3 mg/kg s.c. daily) is listed as 46.9%.
Turning to `O=P(O)(O)C(O)(CC1CCSc2ccc(Cl)cc21)P(=O)(O)O` (centres unmarked) [Example 4, Monosodium 2-[4-(6-chlorothiochromanyl)]-1-hydroxyethane-1,1-diphosphonate], for the setting “3 mg/kg s.c. daily”, the “Swelling inhibition rate … 14th day, Left” value is reported as 55.5%; the “Swelling inhibition rate … 21st day, Left” value is 93.0%; the “Swelling inhibition rate … 14th day, Right” value is 32.4%; the “Swelling inhibition rate … 21st day, Right” value worked out at 37.7%. In addition, the “Bone destruction inhibition rate” value (3 mg/kg s.c. daily) came to 52.7%.
`CCc1cccc2c1SCCC2CC(O)(P(=O)(O)O)P(=O)(O)O` (centres unmarked) [Example 10, Disodium 2-[4-(8-ethylthiochromanyl)]-1-hydroxyethane-1,1-diphosphonate]: for the setting “3 mg/kg s.c. daily”, the “Swelling inhibition rate … 14th day, Left” value worked out at 38.1%; the “Swelling inhibition rate … 21st day, Left” value is 62.5%; the “Swelling inhibition rate … 14th day, Right” value is given as 19.5%; the “Swelling inhibition rate … 21st day, Right” value came to 33.9%. For the same compound, the “Bone destruction inhibition rate” value (3 mg/kg s.c. daily) turned out to be 23.9%.
On to `O=P(O)(O)C(O)(CC1CCSc2c(Cl)cccc21)P(=O)(O)O` (centres unmarked) [Example 8], for which, for the setting “3 mg/kg s.c. daily”, the “Swelling inhibition rate … 14th day, Left” value is recorded as 52.6%; the “Swelling inhibition rate … 21st day, Left” value was determined as 84.1%; the “Swelling inhibition rate … 14th day, Right” value is on record as 0.1%; the “Swelling inhibition rate … 21st day, Right” value amounted to 37.5%. In addition, under “3 mg/kg s.c. daily”, the “Bone destruction inhibition rate” value was found to be 52.3%.
